Data published in patent publication US6440417B1, “Antibodies to argatroban derivatives and their use in therapeutic and diagnostic treatments” (ConjuChem, Inc., priority 1998, dated 2002).

Key:
rat plasma proteins = experiment: Western blot of plasma from rats dosed in vivo; conditions: intravenous, 5 minutes and 24 hours after dosing
Protocol: Fifteen Sprague-Dawley rats weighing 250-300 grams were randomized for treatment with either argatroban and argatroban derivative. Rats treated with argatroban received dosages of either 3 or 10 mg/kg (n=6 and respectively) administered intravenously. […] A control group of rats was treated with intravenous injection of DMSO (0.2 ml/kg, n=3). The study was divided into two groups. Plasma samples were obtained from group 1 rats at time periods of 5 min, 15 min, and 24 hrs after injection. Plasma samples were obtained from group 2 rats at 1 hr, 3 hr and 24 hr following injection. […] The collected plasma samples from these rats were frozen for subsequent evaluation of the extent of conjugation to plasma proteins using ELISA and western blot analysis.
Plasma samples obtained from the rats were diluted 1:50 in PBS and then further diluted 1:1 with 2× Laemmli non-reducing buffer (Novex). The samples were boiled for 5 min. after which 25 ul of each sample were loaded per well of 8% acrylamide SDS-PAGE precast gel (10 lanes/1 mm gel, Novex). Samples were run in replicates for staining with Coomassie blue and for transfer to nitrocellulose.
Gels were run at a constant voltage of 120 V until the dye fronts reached the bottom of gels. […]

plasma proteins = experiment: Western blot of plasma proteins derivatized in vitro with argatroban derivatives; conditions: human and rat whole blood, 100 μM, 30 minutes; bands from less than 39.5 kDa to greater than 193 kDa
Protocol: (§1) Whole blood samples were treated with argatroban derivatives to yield plasma proteins and red blood cells derivatized with argatroban. Fresh citrated human, rabbit (New Zealand) and rat (Sprague Dawley) whole blood samples were incubated with 100 μM (final concentration) Argatroban-C6-NHS, Argatroban-C16-Maleimide or DMSO, for 30 minutes at room temperature under gentle agitation. After quenching the reaction with 1 mM lysine or cysteine, the whole blood was centrifuged 10 min at 2500 rpm. Labelled plasma were recovered and stored at −20° C. until use. Labelled red blood cells (RBCs) were washed three times in PBS (5 min at 2500 rpm).
Labeled plasma were diluted 1/10 in water. Five μl of diluted plasma (·30 μg protein) were mixed with electrophoresis buffer and separated by SDS-PAGE using an 8% polyacrylamide gel, under non-reducing conditions. Plasma proteins were then transferred onto nitrocellulose sheet with a semi-dry transfer apparatus. Efficacy of transfer was checked by reversible staining with 1% Ponceau Red. The blot was saturated with tris-buffered saline (TBS) containing 5% gelatin and 0.1% Tween 20, for 2H at 37° C. to minimize non-specific binding. After three washes with TBS-1 % Tween 20 (TBS-T), the blot was incubated with rabbit anti-argatroban polyclonal serum from diluted 1/20,000 in TBS containing 1% gelatin and 0.1% Tween 20 (TBS-GT), for 1H30 at RT. […]

red blood cells = experiment: Flow cytometry of red blood cells derivatized in vitro with argatroban derivatives; assay type: cell-based, human, rabbit, rat; conditions: RBCs from whole blood incubated with 100 μM derivative, each sample
Protocol: as §1
After the last centrifugation, a 10% suspension of labelled red blood cells (RBCS) was made in PBS. Five μl of the suspension was mixed with rabbit anti-argatroban polyclonal sera from Example 4 diluted 1/500 in PBS-1% BSA and incubated at room temperature for 1 hour. After three washes in PBS, the RBCs were incubated with 50 μl of FITC-labeled goat anti-rabbit Ig (BioAtlantic, Nantes) diluted 1/50 in PBS-1% BSA for 1 hour in the dark. After three washes, the RBCs were resuspended in 0.5 ml PBS and fluorescence was detected by flow cytofluorometer (Becton Dickinson).

SMILES | plasma protein labelling / association with anti-argatroban antisera (rat plasma proteins) | protein bands identified in derivatized plasma samples (plasma proteins) | mean fluorescence signal relative to argatroban-maleimide derivatized cells (red blood cells) [times]
CC1CNc2c(cccc2S(=O)(=O)N[C@@H](CCCNC(=N)N)C(=O)N2CC[C@@H](C)C[C@@H]2C(=O)O)C1 (stereo partly drawn) [argatroban] | minimal protein association |  | 
CC1CNc2c(cccc2S(=O)(=O)N[C@@H](CCCN=C(N)N)C(=O)N2CC[C@@H](C)C[C@@H]2C(=O)NCCCCCC(=O)ON2C(=O)CCC2=O)C1.Cl.Cl (stereo partly drawn) [argatroban-NHS] |  | Numerous protein bands | 3 to 7
